Test results taken from patent US20220331303A1, “USE OF AN OREXIN 2 RECEPTOR AGONIST FOR THE TREATMENT OF EXCESSIVE SLEEPINESS” (Takeda Pharmaceutical Company Limited, priority 2019, published 2022).

Assay: Plasma PK of Compound A after a single 9-hour IV infusion in sleep-deprived healthy male subjects
Assay type: in vivo, human
Description: This was a phase 1b, single-center, randomized, double-blind, double-dummy, placebo- and active-controlled, 4-period Williams design crossover study to evaluate the PK, PD, and safety of Compound A in sleep-deprived healthy volunteers. Compound A was administered as a 9-hour IV infusion.
Healthy adult male subjects aged 18 to 40 years, inclusive, who satisfied the inclusion and exclusion criteria were enrolled in the trial. On Day 1 of treatment period 1, eligible subjects were equally randomized to 4 treatment sequence groups (sequence 1 to 4) which defined the order of administration for Compound A LD, Compound A HD (both delivered as a 9-hour IV infusion), modafinil 300 mg, and placebo.
During the day before dosing on Day 1, participants were administered the KSS at scheduled timepoints. A practice MWT session was performed on Day 1 treatment period 1 (only once during the entire study) to familiarize subjects with the procedures. Study drug was administered in the clinic in the evening on Day 1 of each treatment period. Subjects underwent the MWT and KSS at specified timepoints after the start of the infusion. Subjects were required to stay awake between the MWT tests. Following completion of the IV infusion on Day 2, subjects underwent an additional MWT test. When the final MWT test and cognitive testing were completed, subjects were allowed to sleep (recovery sleep) for approximately 6 hours. PSG recording was collected during this time. Subjects were discharged from the unit after completion on Day 2 with continuing actigraphy upon discharge (to begin on Day −6 before the next treatment period). The interval between each subsequent treatment period was at least 7 days to ensure that the subject's circadian rhythm had returned to a normal cycle. Subject's vital signs, including BP, were monitored during the dosing and testing period. Blood samples for determination of Compound A plasma concentrations were collected at specified timepoints on Days 1 and 2 of each treatment period. Subjects completed the Columbia-Suicide Severity Rating Scale (C-SSRS) during screening, before study drug administration, and before discharge on Day 2 of each treatment period.
Plasma concentrations were tabulated, and descriptive statistics were calculated for each Compound A dose level and are listed in Tables 3-6 for Compound A. The mean plasma concentration versus time plots for Compound A are shown in FIG. 1.

[1] = 44 mg 9-h IV infusion, 0.17 h post infusion end
[2] = 44 mg 9-h IV infusion, 0.5 h post infusion end
[3] = 44 mg 9-h IV infusion, 1 h post infusion end
[4] = 44 mg 9-h IV infusion, 2 h post infusion end
[5] = 44 mg 9-h IV infusion, 3 h post infusion end
[6] = 44 mg 9-h IV infusion, 4 h post infusion end
[7] = 44 mg 9-h IV infusion, 6 h post infusion end
[8] = 44 mg 9-h IV infusion, 9 h post infusion end
[9] = 44 mg 9-h IV infusion, Discharge (post infusion end)
[10] = 44 mg [LD] single 9-hour IV infusion
[11] = 112 mg 9-h IV infusion, 0.17 h post infusion end
[12] = 112 mg 9-h IV infusion, 0.5 h post infusion end
[13] = 112 mg 9-h IV infusion, 1 h post infusion end
[14] = 112 mg 9-h IV infusion, 1 h post infusion start
[15] = 112 mg 9-h IV infusion, 2 h post infusion end
[16] = 112 mg 9-h IV infusion, 2 h post infusion start
[17] = 112 mg 9-h IV infusion, 4 h post infusion start
[18] = 112 mg 9-h IV infusion, 6 h post infusion start
[19] = 112 mg 9-h IV infusion, 9 h post infusion start
[20] = 112 mg 9-h IV infusion, Discharge (post infusion end)
[21] = 112 mg [HD] single 9-hour IV infusion

## COC(=O)N1CCC[C@H](NS(C)(=O)=O)[C@@H]1CO[C@H]1CC[C@@H](c2ccccc2)CC1 [Compound A, methyl (2R,3S)-3-((methylsulfonyl)amino)-2-(((cis-4-phenylcyclohexyl)oxy)methyl)piperidine-1-carboxylate]
[1]
  Plasma Concentration Mean: 76.86 ng/mL
  Plasma concentration (GM): 76.07 ng/mL
  Plasma concentration (Median): 74.80 ng/mL
[2]
  Plasma Concentration Mean: 50.78 ng/mL
  Plasma concentration (GM): 49.49 ng/mL
  Plasma concentration (Median): 49.10 ng/mL
[3]
  Plasma Concentration Mean: 40.73 ng/mL
  Plasma concentration (GM): 39.05 ng/mL
  Plasma concentration (Median): 38.15 ng/mL
[4]
  Plasma Concentration Mean: 22.23 ng/mL
  Plasma concentration (GM): 21.44 ng/mL
  Plasma concentration (Median): 21.00 ng/mL
[5]
  Plasma Concentration Mean: 20.67 ng/mL
  Plasma concentration (GM): 19.74 ng/mL
  Plasma concentration (Median): 20.35 ng/mL
[6]
  Plasma Concentration Mean: 16.28 ng/mL
  Plasma concentration (GM): 15.56 ng/mL
  Plasma concentration (Median): 17.25 ng/mL
[7]
  Plasma Concentration Mean: 10.32 ng/mL
  Plasma concentration (GM): 9.85 ng/mL
  Plasma concentration (Median): 10.75 ng/mL
[8]
  Plasma Concentration Mean: 5.56 ng/mL
  Plasma concentration (GM): 5.06 ng/mL
  Plasma concentration (Median): 5.06 ng/mL
[9]
  Plasma Concentration Mean: 4.95 ng/mL
  Plasma concentration (GM): 4.60 ng/mL
  Plasma concentration (Median): 4.78 ng/mL
[10]
  Ceoi (GM): 102.5 ng/mL
  Ceoi (Mean): 103.4 ng/mL
  Ceoi (Median): 101.0 ng/mL
  t1/2z (Mean): 3.134 h
  t1/2z (Median): 3.020 h
[11]
  Plasma Concentration Mean: 196.83 ng/mL
  Plasma concentration (Median): 197.50 ng/mL
[12]
  Plasma Concentration Mean: 124.21 ng/mL
  Plasma concentration (Median): 121.50 ng/mL
[13]
  Plasma Concentration Mean: 100.48 ng/mL
  Plasma concentration (Median): 96.90 ng/mL
[14]
  Plasma Concentration Mean: 162.56 ng/mL
  Plasma concentration (GM): 155.56 ng/mL
  Plasma concentration (Median): 151.00 ng/mL
[15]
  Plasma Concentration Mean: 58.92 ng/mL
  Plasma concentration (Median): 61.40 ng/mL
[16]
  Plasma Concentration Mean: 187.06 ng/mL
  Plasma concentration (GM): 185.71 ng/mL
  Plasma concentration (Median): 179.50 ng/mL
112 mg 9-h IV infusion, 3 h post infusion end
  Plasma Concentration Mean: 53.01 ng/mL
112 mg 9-h IV infusion, 4 h post infusion end
  Plasma Concentration Mean: 41.98 ng/mL
[17]
  Plasma Concentration Mean: 217.61 ng/mL
  Plasma concentration (GM): 216.56 ng/mL
  Plasma concentration (Median): 210.00 ng/mL
112 mg 9-h IV infusion, 6 h post infusion end
  Plasma Concentration Mean: 24.24 ng/mL
[18]
  Plasma Concentration Mean: 234.06 ng/mL
  Plasma concentration (GM): 232.92 ng/mL
  Plasma concentration (Median): 229.50 ng/mL
112 mg 9-h IV infusion, 9 h post infusion end
  Plasma Concentration Mean: 13.78 ng/mL
[19]
  Plasma Concentration Mean: 253.39 ng/mL
  Plasma concentration (GM): 250.96 ng/mL
  Plasma concentration (Median): 252.50 ng/mL
[20]
  Plasma Concentration Mean: 13.01 ng/mL
  Plasma concentration (GM): 12.09 ng/mL
  Plasma concentration (Median): 11.50 ng/mL
[21]
  Ceoi (GM): 251.0 ng/mL
  Ceoi (Mean): 253.4 ng/mL
  Ceoi (Median): 252.5 ng/mL
  t1/2z (Mean): 3.252 h
  t1/2z (Median): 3.165 h
